Test results: US10143691B2, “Pathogenic control of apoptosis” (CSIR, priority 2014, dated 2018)
“Also recorded” adds a separate entry of the source. Where two headings read alike, the source gives them in different places.

Assays:
[1] = tested on: hnRNP-K; assay: Immunofluorescence of hnRNP-K cellular location in Ghost(3) cells; assay type: cell-based
Description: (§1) For each experiment, Ghost(3) cells or IPSC-derived primary macrophages were infected or treated with 500 nM Doxorubicin on coverslips, fixed for 10 mins in fresh 4% paraformaldehyde at room temperature, then washed 3 times in PBS and permeabilised for 10 mins in ice-cold methanol at […]. Coverslips were washed once in PBS and incubated in blocking buffer (5% goat serum, 0.3% TritonX100 in PBS) for 60 mins at room temperature. Cells were incubated in primary antibody solution (1% BSA, 0.3% Triton X100 in PBS) overnight at 4° C. Double strand breaks were detected using rabbit polyclonal anti-phosphohistone H2A.X Ser139 (Cell Signaling). Activated ATM was detected using rabbit monoclonal anti-phosphoATM Ser1981 (Cell Signaling). The ability of p53 to regulate apoptosis was detected using rabbit polyclonal antiphosphop53 Ser46 (Cell Signaling). Viral p24 was detected using mouse monoclonal anti-HIV1p24 (AIDS Research and Reference Reagent Program, Division of AIDS, NIAID, NIH). HuR was detected using mouse monoclonal anti-HuR 3A2 (Santa Cruz Biotechnology). hnRNPK was detected using goat polyclonal anti-hnRNPK P20 (Santa Cruz Biotechnology). Coverslips were washed 3 times (5 mins each on an orbital shaker) with wash buffer (0.05% Tween20 in PBS), followed by incubation with secondary antibodies conjugated to either Atto550 or Atto565 or Atto647 for 60 mins at room temperature. Coverslips were washed 3 times (5 mins each on an orbital shaker) with wash buffer (0.05% Tween20 in PBS). Coverslips were incubated in equilibration buffer (0.4% glucose, 2×SCC) for 5 mins and counter stained with 1 mg/ml DAPI (4′,6-diamidino-2-phenylindole; Life Technologies). Coverslips were mounted in glox buffer (3.7 mg/ml glucose oxidase, 1 U catalase) and imaged.
For each experiment, cells were infected or treated with drugs on coverslips, fixed for 10 mins in fresh 4% paraformaldehyde at room temperature, then washed 3 times in PBS and permeabilised for 10 mins in ice-cold methanol at −20° C. Coverslips were washed once in PBS and incubated in blocking buffer (5% goat serum, 0.3% Triton-X100 in PBS) for 60 mins at room temperature. Cells were incubated in primary antibody solution (1% BSA, 0.3% Triton X-100 in PBS) overnight at 4° C. Double strand breaks were detected using rabbit polyclonal anti-phospho-histone H2A.X Ser139 (Cell Signaling). Activated ATM was detected using rabbit monoclonal anti-phospho-ATM Ser1981 (Cell Signaling). The ability of p53 to regulate apoptosis was detected using rabbit polyclonal anti-phospho-p53 Ser46 (Cell Signaling). Viral p24 was detected using mouse monoclonal anti-HIV-1-p24 (AIDS Research and Reference Reagent Program, Division of AIDS, NIAID, NIH). HuR was detected using mouse monoclonal anti-HuR 3A2 (Santa Cruz Biotechnology). hnRNP-K was detected using goat polyclonal anti-hnRNP-K P-20 (Santa Cruz Biotechnology). Coverslips were washed 3 times (5 mins each on an orbital shaker) with wash buffer (0.05% Tween-20 in PBS), followed by incubation with secondary antibodies conjugated to either Atto-550 or Atto-565 or Atto-647 for 60 mins at room temperature. Coverslips were washed 3 times (5 mins each on an orbital shaker) with wash buffer (0.05% Tween-20 in PBS). Coverslips were incubated in equilibration buffer (0.4% glucose, 2×SCC) for 5 mins and counter stained with 1 mg/ml DAPI (4′,6-diamidino-2-phenylindole; Life Technologies). Coverslips were mounted in glox buffer (3.7 mg/ml glucose oxidase, 1 U catalase) and imaged.

[2] = tested on: HuR; assay: Immunofluorescence of HuR cellular location in Ghost(3) cells; assay type: cell-based; conditions: HIV-infected Ghost(3) cells with inhibitor added (10 μM)
Description: as §1, with “Coverslips were washed 3 times (5 mins each on an orbital shaker) with wash buffer (0.05% Tween20 in PBS), followed by incubation with secondary antibodies conjugated to either Atto550 or Atto565 or Atto647 for 60 mins at room temperature. Coverslips were washed 3 times (5 mins each on an orbital shaker) with wash buffer (0.05% Tween20 in PBS). Coverslips were incubated in equilibration buffer (0.4% glucose, 2×SCC) for 5 mins and counter stained with 1 mg/ml DAPI (4′,6-diamidino-2-phenylindole; Life Technologies). Coverslips were mounted in glox buffer (3.7 mg/ml glucose oxidase, 1 U catalase) and imaged.” left out
(§2) For each experiment, cells were infected or treated with drugs on coverslips, fixed for 10 mins in fresh 4% paraformaldehyde at room temperature, then washed 3 times in PBS and permeabilised for 10 mins in ice-cold methanol at −20° C. […] Double strand breaks were detected using rabbit polyclonal anti-phospho-histone H2A.X Ser139 (Cell Signaling). Activated ATM was detected using rabbit monoclonal anti-phospho-ATM Ser1981 (Cell Signaling). The ability of p53 to regulate apoptosis was detected using rabbit polyclonal anti-phospho-p53 Ser46 (Cell Signaling). Viral p24 was detected using mouse monoclonal anti-HIV-1-p24 (AIDS Research and Reference Reagent Program, Division of AIDS, NIAID, NIH). HuR was detected using mouse monoclonal anti-HuR 3A2 (Santa Cruz Biotechnology). hnRNP-K was detected using goat polyclonal anti-hnRNP-K P-20 (Santa Cruz Biotechnology). […]

[3] = tested on: Ghost(3) cells; assay type: cell-based; conditions: for apoptosis of HIV-infected cells: HIV-infected Ghost(3) cells exposed to inhibitor (10 μM), 30 hours post-infection
Description: Apoptosis was measured in Ghost(3) cells 30 hours post-infection or drug treatment using the NucView™ 488 Caspase3 Assay Kit (Biotium) in a 96 well format. Data was analysed in MATLAB using a probabilistic region method to measure cell attachment and expressed as percentage cell survival. […] An average of 3000 cells per condition were analysed with the exception of cells treated with Doxorubicin followed by HIV-infection (FIG. 3), cells transfected with lincRNAp21 overexpression constructs followed by Doxorubicin treatment, and cells transfected with full-length lincRNAp21, infected with HIV1 and treated with Nutlin3 (FIG. 25). These latter conditions ( ? ) yielded too few attached cells (<20) at 30 hours for similar analysis.
Apoptosis was measured in Ghost(3) cells 30 hours post-infection or drug treatment using the NucView™ 488 Caspase-3 Assay Kit (Biotium) in a 96 well format. Data was analysed in MATLAB using a probabilistic region method to measure cell attachment and expressed as percentage cell survival. […] An average of 3000 cells per condition were analysed with the exception of cells treated with Doxorubicin followed by HIV-infection (FIG. 27), cells transfected with lincRNA-p21 overexpression constructs followed by Doxorubicin treatment (FIG. 36), and cells transfected with full-length lincRNA-p21, infected with HIV-1 and treated with Nutlin3 (FIG. 45). These latter conditions ( ? ) yielded too few attached cells (<20) at 30 hours for similar analysis.

[4] = tested on: HIV-1; assay: HIV-1 infection/replication in Ghost(3) reporter cells (LTR-driven GFP expression); assay type: cell-based; conditions: Ghost(3) cells exposed to HIV-1 and treated
Description: Viral stocks were titred using TZMBI cells and used to infect Ghost(3) cells using an MOI=1.0, or IPSO-derived macrophages using an MOI=0.5. Where indicated, Ghost(3) cells were treated with 10 μM of either Raltegravir, Maraviroc, Tenofovir (AIDS Research and Reference Reagent Program, Division of AIDS, NIAID, NIH) or Nutlin3a (Sigma) for up to 48 hours.
Viral stocks were titred using TZM-BI cells and used to infect Ghost(3) cells using an MOI=1.0, or IPSO-derived macrophages using an MOI=0.5. Where indicated, cells were treated with 10 μM of either Raltegravir, Maraviroc, Tenofovir (AIDS Research and Reference Reagent Program, Division of AIDS, NIAID, NIH) or Doxorubicin (Sigma-Aldrich), or Nutlin3a (Sigma-Aldrich), or MAP2K1 inhibitor (U-0126) or ERK2 inhibitor (FR180204) for up to 48 hours.

[5] = tested on: H2A.XpSer139; assay: Immunofluorescence staining of double strand breaks (H2A.XpSer139); assay type: cell-based; conditions: HIV-1 infected cells treated with 10 μM drug
Description: as §1
as §2, with “C. Coverslips were washed once in PBS and incubated in blocking buffer (5% goat serum, 0.3% Triton-X100 in PBS) for 60 mins at room temperature.” for “C.”

[6] = tested on: lincRNAp21; assay: lincRNA-p21 expression by RNA FISH spot counts and quantitative RT-PCR; assay type: cell-based, human; conditions: HIV-infected Ghost(3) cells, qRT-PCR relative to HPRT
Description: RNA FISH on Ghost(3) cells was performed according to Raj, 2008 and on primary macrophages according to Schaffer, 2013. For both methods 48 20mer probes (Biosearch) targeted to human lincRNAp21 were synthesised baring a […] C6dT. The amino group was subsequently conjugated to the following NHSester dyes: ATTO565, ATTO647N (ATTOTEC) or Alexa Fluor 647 (Invitrogen). Briefly, oligonucleotide probes were ethanol precipitated and resuspended in 0.1 M sodium tetraborate (Sigma). Approximately 0.3 mg of the NHSester dye (ATTOTEC) was dissolved in dimethyl sulphoxide (Sigma). The dye solution was added to the probe solution and incubated overnight in the dark at 37° C. Following the conjugation reaction, the probes were ethanol precipitated overnight, and resuspended in 0.1 M triethyl ammonium (Sigma). Conjugated probes were separated and purified to enrich for dyeconjugated probes by reverse phase HPLC on a C18 column. […]
For each experiment, Ghost(3) cells or IPSO-derived primary macrophages were infected or treated with 500 nM Doxorubicin over time and total RNA was extracted from cells using TRIzol® (Life Technologies), treated with RQ1 RNase-free DNase (Promega) and reverse transcribed using SuperScript III Reverse Transcriptase (Life Technologies). Quantitative RTPCR was performed using Sso Fast EvaGreen™ supermix (BioRad) on a BioRad CFX96 real-time PCR detection system. […]

[7] = HIV-infected Ghost(3) cells exposed to MAP2K1 or ERK2 inhibitor (10 μM), 30 hours post-infection
[8] = Ghost(3) cells exposed to HIV-1 and concurrently treated with 10 μM antiretroviral
[9] = cells transfected 24 hours with full-length or truncated lincRNA-p21, then Nutlin3a, absence of HIV-1
[10] = full-length lincRNA-p21 transfected 24 hours, HIV-1 infected 24 hours, then Nutlin3a
[11] = truncated lincRNA-p21 transfected 24 hours, HIV-1 infected 24 hours, then Nutlin3a

Compound	cellular location of hnRNP-K [1, 7]	cellular location of HuR [2]	apoptosis of HIV-infected cells [3]	cellular location of hnRNP-K [1, 8]	HIV-1 infection / replication (GFP expression) [4]	also measured
N#CC(=C(N)Sc1ccccc1N)C(C#N)=C(N)Sc1ccccc1N [MAP2K1 inhibitor, 1,4-diamino-2,3-dicyano-1,4-bis(2-aminophenylthio)butadiene]	strong nuclear localisation of hnRNP-K	cytoplasmic (and nuclear) HuR	infected cells underwent apoptosis	–	–	–
Maraviroc	–	–	–	no nuclear hnRNPK	remained uninfected	–
C[C@H](Cn1cnc2c(N)ncnc21)OCP(=O)(O)O [Tenofovir]	–	–	–	no nuclear hnRNPK	–	–
COc1ccc(C2=NC(c3ccc(Cl)cc3)C(c3ccc(Cl)cc3)N2C(=O)N2CCNC(=O)C2)c(OC(C)C)c1 (single isomer, unassigned; (-)) [Nutlin3a, (−)-4-(4,5-Bis(4-chlorophenyl)-2-(2-isopropoxy-4-methoxyphenyl)-4,5-dihydro-1H-imidazole-1-carbonyl)piperazin-2-one]	–	–	–	–	–	cellular location of hnRNP-K ([1]; Ghost(3) cells, Nutlin3a (10 μM) added 24 hours post HIV-1 infection): nuclear localisation of hnRNP-K at 48 hours in GFP-positive cells only; also recorded: nuclear localisation of hnRNPK in HIV-infected cells only; also recorded: nuclear localisation of hnRNP-K in HIV-infected cells only; also recorded: nuclear localisation of hnRNPK at 48 hours in GFP-positive cells only; cellular location of hnRNP-K ([1]; Ghost(3) cells, drug only, no HIV infection): cytoplasmic hnRNP-K; also recorded: no nuclear hnRNPK; also recorded: no nuclear hnRNP-K; also recorded: cytoplasmic hnRNPK; cellular location of hnRNP-K ([1]; Nutlin3a added prior to HIV1 infection): no nuclear hnRNPK was observed; cellular location of hnRNP-K [1, 9]: cytoplasmic hnRNPK; also recorded: cytoplasmic hnRNP-K; cellular location of hnRNP-K [1, 10]: showed nuclear hnRNP-K; also recorded: show nuclear hnRNPK; cellular location of hnRNP-K [1, 11]: show nuclear hnRNP-K; also recorded: also showed nuclear hnRNPK; also recorded: also showed nuclear hnRNP-K; also recorded: show nuclear hnRNPK; apoptosis [3, 9]: no apoptosis; apoptosis [3, 10]: undergo apoptosis within 24 hours of Nutlin3a addition; also recorded: underwent apoptosis; apoptosis [3, 11]: do not undergo apoptosis; also recorded: did not undergo apoptosis
Nc1n[nH]c2nnc(-c3c(-c4ccccc4)nn4ccccc34)cc12 [ERK2 inhibitor, 5-(2-phenylpyrazolo[1,5-a]pyridin-3-yl)-1H-pyrazolo[3,4-c]pyridazin-3-amine]	strong nuclear localisation of hnRNP-K	Cytoplasmic HuR is not observed; also recorded: HIV-1 able to sequester HuR in the nucleus	infected cells underwent apoptosis	–	–	–
Cc1nnc(C(=O)NC(C)(C)c2nc(C(=O)NCc3ccc(F)cc3)c(O)c(=O)n2C)o1 [Raltegravir]	–	–	–	no nuclear hnRNPK over time; also recorded: cytoplasmic hnRNPK	no GFP expression	H2A.X staining in HIV-infected cells [5]: abrogate this effect; lincRNA-p21 expression [6]: no change in lincRNAp21 expression; also recorded: does not affect lincRNAp21 expression
